Measurements reported in patent US20120022142A1, “RNA Interference Mediated Inhibition of Signal Transducer and Activator of Transcription 1 (STAT1) Gene Expression Using Short Interfering Nucleic Acid (siNA)” (Merck Sharp & Dohme Corp., priority 2009, published 2012).
[invAb] = inverted abasic unit; m = 2'-O-methyl; r = 2'-OH (RNA); f = 2'-fluoro

System: STAT1 mRNA
Test: Stat1 mRNA knockdown and EC50 in human bronchial epithelial cells (NHBE)
Assay type: cell-based
Settings: 48 hours post transfection, mean of 3 donors; for EC50: Stat1 mRNA knockdown; for Maximum mRNA Knockdown: Stat1 mRNA
Protocol: Human Bronchial Epithelial cells (NHBE cells) obtained from Lonza (Cat. No. CC-2540) were grown at 37 degrees in the presence of 5% CO2 and cultured in BEBM basal medium (Lonza, Cat. No. CC-3171) on Biocoat Collagen1 coated flasks (Becton Dickinson).
Cells were plated in collagen 1 coated plates and cultured in appropriate culture media. The cells were cultured for 24 hours after plating at 37 deg in the presence of 5% CO2. siNAs were diluted in OptiMEM 1 to 1 uM and the transfection agent to 25 ug/ml. For formulation of the siNAs equal volumes of the diluted siNA and delivery lipid were combined and incubated for 20 minutes at room temperature. Cells were meanwhile trypsinised and resuspended in antibiotic free BEBM media at 150,000 cells/ml. 20 ul of the formulated siNA and 80 ul of BEBM media was added per well of a 96 well plate (6 replicates/data point/siNA concentration) so as to give a nine point dose range of the siNAs (100 nM, 30 nM, 10 nM, 3 nM, 1 nM, 0.3 nM, 0.1 nM, 0.03 nM, 0.01 nM). The time of incubation with the transfection agent-siNA complexes were 48 hours with one change of media at 24 hours.
Total RNA was isolated from the cells in the 96-well plate format using the Automated SV96 Total RNA Isolation System (Promega) according to the manufacturer's instructions. The Biomek 2000 Laboratory Automation Workstation (Beckman Coulter) was used to apply the transfected cell lysates to a silica membrane. RNase-Free DNase I was then applied directly to the silica membrane to digest contaminating genomic DNA. The bound total RNA was further purified from contaminating salts, proteins and cellular impurities by simple washing steps. Finally, total RNA was eluted from the membrane by the addition of Nuclease-Free Water.
A series of probes and primers were used for the detection of mRNA transcripts of STAT1, OAS1, and GAPDH (as control/normalisation) in the human cell lines. The assays were performed on an ABI 7900HT instrument according to the manufacturer's instructions.
With TaqMan data, critical threshold values (Ct) were converted to copy numbers corresponding to the particular gene analysed in each well of the 384 well plate. Six identical wells were prepared in each plate for a given treatment. […] Determination of the percentage coefficient of variation (CV) (% C.V.=[standard deviation/average]*100) allowed the omitting of wells whose value was an outlier (so that % C.V.<25). Relative abundance (aka relative expression) of a gene was determined by dividing the mean copy number of that gene with its GAPDH counterpart in that particular sample.
EC50 values were calculated from the data using sigma plot. All calculations of the efficacy and potency of the siNAs were done relative to the non-targeting control siNA.

| Substance | EC50 | Maximum mRNA Knockdown |
| --- | --- | --- |
| 25368-DC: STAT1 siNA duplex, human target site 782; modified strands SEQ ID NO: 73 and 74 (chain 1 GUAAAGUCAGAAAUGUGAATT; chain 2 UUCACAUUUCUGACUUUACUU; chain 1: DNA at AGT, 2'-fluoro at CU, [invAb] at 5' end, 3' end, backbone not given here; chain 2: sugars from the 5' end rrrmfmfffffmmffffmfmm, backbone not given here) | 0.06 nM | 93% |
| 25372-DC: STAT1 siNA duplex, human target site 968; modified strands SEQ ID NO: 81 and 82 (chain 1 UUGACAAUAAGAGAAAGGATT; chain 2 UCCUUUCUCUUAUUGUCAAUU; chain 1: DNA at AGT, 2'-fluoro at CU, [invAb] at 5' end, 3' end, backbone not given here; chain 2: sugars from the 5' end rrrffffffffmffmffmmmm, backbone not given here) | 0.5 nM | 96% |
